According to PubChem BioAssay (NCI):
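Compound exposure: 48 hours, 5 concentrations, 96-well plates. At the TGI there is no net growth.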

Columns and labels:
Test in all cases: growth of human tumour cells (NCI), 48 h
786-0 renal = test system: 786-0 renal
A498 renal = test system: A498 renal
A549 NSCLC = test system: A549 NSCLC
ACHN renal = test system: ACHN renal
CAKI-1 renal = test system: CAKI-1 renal
CCRF-CEM leukemia = test system: CCRF-CEM leukemia
DLD-1 colon = test system: DLD-1 colon
DMS 114 small cell lung = test system: DMS 114 small cell lung
DMS 273 small cell lung = test system: DMS 273 small cell lung
EKVX NSCLC = test system: EKVX NSCLC
HCC-2998 colon = test system: HCC-2998 colon
HCT-15 colon = test system: HCT-15 colon
HL-60(TB) leukemia = test system: HL-60(TB) leukemia
HOP-18 NSCLC = test system: HOP-18 NSCLC
HOP-62 NSCLC = test system: HOP-62 NSCLC
HOP-92 NSCLC = test system: HOP-92 NSCLC
HT29 colon = test system: HT29 colon
IGROV1 ovarian = test system: IGROV1 ovarian
K-562 leukemia = test system: K-562 leukemia
KM12 colon = test system: KM12 colon
KM20L2 colon = test system: KM20L2 colon
LXFL 529 NSCLC = test system: LXFL 529 NSCLC
M14 melanoma = test system: M14 melanoma
M19-MEL melanoma = test system: M19-MEL melanoma
MOLT-4 leukemia = test system: MOLT-4 leukemia
NCI-H226 lung = test system: NCI-H226 lung
NCI-H23 lung = test system: NCI-H23 lung
NCI-H460 lung = test system: NCI-H460 lung
NCI-H522 lung = test system: NCI-H522 lung
OVCAR-4 ovarian = test system: OVCAR-4 ovarian
OVCAR-5 ovarian = test system: OVCAR-5 ovarian
OVCAR-8 ovarian = test system: OVCAR-8 ovarian
RPMI-8226 leukemia = test system: RPMI-8226 leukemia
RXF 393 renal = test system: RXF 393 renal
SF-268 CNS = test system: SF-268 CNS
SF-295 CNS = test system: SF-295 CNS
SF-539 CNS = test system: SF-539 CNS
SK-MEL-2 melanoma = test system: SK-MEL-2 melanoma
SK-MEL-28 melanoma = test system: SK-MEL-28 melanoma
SK-MEL-5 melanoma = test system: SK-MEL-5 melanoma
SK-OV-3 ovarian = test system: SK-OV-3 ovarian
SN12C renal = test system: SN12C renal
SNB-19 CNS = test system: SNB-19 CNS
SNB-75 CNS = test system: SNB-75 CNS
SR leukemia = test system: SR leukemia
SW-620 colon = test system: SW-620 colon
TK-10 renal = test system: TK-10 renal
U251 CNS = test system: U251 CNS
UACC-257 melanoma = test system: UACC-257 melanoma
UACC-62 melanoma = test system: UACC-62 melanoma
UO-31 renal = test system: UO-31 renal
XF 498 CNS = test system: XF 498 CNS
COLO 205 colon = test system: COLO 205 colon
HCT-116 colon = test system: HCT-116 colon
MALME-3M melanoma = test system: MALME-3M melanoma
OVCAR-3 ovarian = test system: OVCAR-3 ovarian

CN(C)c1nc(N(C)C)sc(=O)n1
TGI (786-0 renal): > 100 µM | TGI (A498 renal): > 100 µM | TGI (A549 NSCLC): > 100 µM | TGI (ACHN renal): > 100 µM | TGI (CAKI-1 renal): > 100 µM | TGI (CCRF-CEM leukemia): > 100 µM | TGI (DLD-1 colon): > 100 µM | TGI (DMS 114 small cell lung): > 100 µM | TGI (DMS 273 small cell lung): > 100 µM | TGI (EKVX NSCLC): > 100 µM | TGI (HCC-2998 colon): > 100 µM | TGI (HCT-15 colon): > 100 µM | TGI (HL-60(TB) leukemia): > 100 µM | TGI (HOP-18 NSCLC): > 100 µM | TGI (HOP-62 NSCLC): > 100 µM | TGI (HOP-92 NSCLC): > 100 µM | TGI (HT29 colon): > 100 µM | TGI (IGROV1 ovarian): > 100 µM | TGI (K-562 leukemia): > 100 µM | TGI (KM12 colon): > 100 µM | TGI (KM20L2 colon): > 100 µM | TGI (LXFL 529 NSCLC): > 100 µM | TGI (M14 melanoma): > 100 µM | TGI (M19-MEL melanoma): > 100 µM | TGI (MOLT-4 leukemia): > 100 µM | TGI (NCI-H226 lung): > 100 µM | TGI (NCI-H23 lung): > 100 µM | TGI (NCI-H460 lung): > 100 µM | TGI (NCI-H522 lung): > 100 µM | TGI (OVCAR-4 ovarian): > 100 µM | TGI (OVCAR-5 ovarian): > 100 µM | TGI (OVCAR-8 ovarian): > 100 µM | TGI (RPMI-8226 leukemia): > 100 µM | TGI (RXF 393 renal): > 100 µM | TGI (SF-268 CNS): > 100 µM | TGI (SF-295 CNS): > 100 µM | TGI (SF-539 CNS): > 100 µM | TGI (SK-MEL-2 melanoma): > 100 µM | TGI (SK-MEL-28 melanoma): > 100 µM | TGI (SK-MEL-5 melanoma): > 100 µM | TGI (SK-OV-3 ovarian): > 100 µM | TGI (SN12C renal): > 100 µM | TGI (SNB-19 CNS): > 100 µM | TGI (SNB-75 CNS): > 100 µM | TGI (SR leukemia): > 100 µM | TGI (SW-620 colon): > 100 µM | TGI (TK-10 renal): > 100 µM | TGI (U251 CNS): > 100 µM | TGI (UACC-257 melanoma): > 100 µM | TGI (UACC-62 melanoma): > 100 µM | TGI (UO-31 renal): > 100 µM | TGI (XF 498 CNS): > 100 µM

COc1ccc2c3c([nH]c2c1CC=C(C)C)C(=O)C=C(C)C3=O
TGI (786-0 renal): > 25 µM | TGI (A549 NSCLC): > 25 µM | TGI (ACHN renal): > 25 µM | TGI (CAKI-1 renal): > 25 µM | TGI (CCRF-CEM leukemia): > 25 µM | TGI (COLO 205 colon): > 25 µM | TGI (DLD-1 colon): > 25 µM | TGI (DMS 114 small cell lung): > 25 µM | TGI (DMS 273 small cell lung): > 25 µM | TGI (EKVX NSCLC): > 25 µM | TGI (HCC-2998 colon): > 25 µM | TGI (HCT-116 colon): > 25 µM | TGI (HCT-15 colon): > 25 µM | TGI (HL-60(TB) leukemia): > 25 µM | TGI (HOP-18 NSCLC): > 25 µM | TGI (HOP-62 NSCLC): > 25 µM | TGI (HOP-92 NSCLC): > 25 µM | TGI (HT29 colon): > 25 µM | TGI (IGROV1 ovarian): > 25 µM | TGI (K-562 leukemia): > 25 µM | TGI (KM12 colon): > 25 µM | TGI (KM20L2 colon): > 25 µM | TGI (LXFL 529 NSCLC): > 25 µM | TGI (M14 melanoma): > 25 µM | TGI (M19-MEL melanoma): > 25 µM | TGI (MALME-3M melanoma): > 25 µM | TGI (MOLT-4 leukemia): > 25 µM | TGI (NCI-H226 lung): > 25 µM | TGI (NCI-H23 lung): > 25 µM | TGI (NCI-H460 lung): > 25 µM | TGI (NCI-H522 lung): > 25 µM | TGI (OVCAR-3 ovarian): > 25 µM | TGI (OVCAR-4 ovarian): > 25 µM | TGI (OVCAR-5 ovarian): > 25 µM | TGI (OVCAR-8 ovarian): > 25 µM | TGI (RPMI-8226 leukemia): > 25 µM | TGI (RXF 393 renal): > 25 µM | TGI (SF-268 CNS): > 25 µM | TGI (SF-295 CNS): > 25 µM | TGI (SF-539 CNS): > 25 µM | TGI (SK-MEL-2 melanoma): > 25 µM | TGI (SK-MEL-28 melanoma): > 25 µM | TGI (SK-MEL-5 melanoma): > 25 µM | TGI (SK-OV-3 ovarian): > 25 µM | TGI (SN12C renal): > 25 µM | TGI (SNB-19 CNS): > 25 µM | TGI (SNB-75 CNS): > 25 µM | TGI (SR leukemia): > 25 µM | TGI (SW-620 colon): > 25 µM | TGI (TK-10 renal): > 25 µM | TGI (U251 CNS): > 25 µM | TGI (UACC-257 melanoma): > 25 µM | TGI (UACC-62 melanoma): > 25 µM | TGI (UO-31 renal): > 25 µM | TGI (XF 498 CNS): > 25 µM
